Assay results taken from patent US20050287666A1, “Cell culture medium comprising transition metals or trace elements” (priority 2004, published 2005).
Entries after “also recorded” stand apart in the source; their conditions may differ. Where two headings read alike, the source gives them in different places.

Key:
Type in all cases: cell-based, human
PER.C6 cells [1] = assay: Lag in the subsequent culture when PER.C6 cells are passaged from overgrown high-density cultures in AEM; details: for high density culturing / passaging of cells from high-density cultures: PER.C6 cells in AEM, cultures above 2×10^6 vc/mL
PER.C6 cells [2] = assay: PER.C6 growth in AEM supplemented with TEM, TEM without zinc or zinc alone (Example 1 and preliminary work); details: zinc evaluated separately
Description: A trace element mix (TEM) was created and used in various test protocols. […] The following media supplements were compared: • 1) TEM. • 2) TEM without zinc. • 3) Zinc alone at the TEM concentration. • 4) These supplements were each added to individual bottles of AEM at 1×, 3×, 5× and 10×. The conditions were then monitored by observing PER.C6 growth. […] Two of the components in TEM, Cu and Ni would individual be toxic at the 10× levels. These levels of trace elements would have been observed in the preliminary variable observations. Thus it was decided that total trace element concentrations were not responsible for the deleterious effects observed.

PER.C6 cells [3] = assay: PER.C6 cell growth after adding cobalt, nickel and manganese to AEM supplemented with TEM-2 (Example 5, FIG. 04)
PER.C6 cells [4] = assay: PER.C6 cell growth in AEM with single trace elements added at low concentration (Example 2, FIG. 01); details: for effect on PER.C6 cell growth: element added singly to AEM: nickel (nitrate) 0.004 mg/L, cobalt (chloride) 0.001 mg/L, manganese (chloride) 0.028 mg/L, copper (chloride) 0.013 mg/L, compared to control

[Zn] [Zinc]
high density culturing / passaging of cells from high-density cultures (PER.C6 cells [1]): consistent high density culturing | lag in the subsequent culture (PER.C6 cells [1]; passaged from overgrown day 5 cultures, AEM): did not lag | overall cell growth (PER.C6 cells [2]): improve overall cell growth

[Cl][Co][Cl] [cobalt, cobalt (chloride)]
effect on PER.C6 cell growth performance (PER.C6 cells [3]): no effect

[Cl][Cu][Cl] [copper, copper (chloride)]
high density culturing / passaging of cells from high-density cultures (PER.C6 cells [1]): does not improve passaging | duration of log growth phase (PER.C6 cells [4]; 0.013 mg/L copper in AEM, all other cultures entered lag phase after day four or five): continued in the log growth phase through day six | effect on PER.C6 cell growth (PER.C6 cells [4]): best results of all conditions tested; also recorded: extends log phase growth | effect on PER.C6 cell growth (PER.C6 cells [4]; listed as Copper): increase growth

[Cl][Mn][Cl] [manganese, manganese (chloride)]
effect on PER.C6 cell growth (PER.C6 cells [4]): inhibits; also recorded: individually toxic | effect on PER.C6 cell growth performance (PER.C6 cells [3]; added to AEM supplemented with TEM-2, same concentrations as in example 2): no effect
